According to ChEMBL document CHEMBL5291721, “A preclinical secondary pharmacology resource illuminates target-adverse drug reaction associations of marketed drugs” (Nat Commun, 2023):

Key:
Mu-type opioid receptor = Mu-type opioid receptor (Homo sapiens, UniProt P35372); assay: biochemical; type: functional
[1] = target: Muscarinic acetylcholine receptor M3 (Homo sapiens, UniProt P20309)
[2] = target: T1, Peroxisome proliferator-activated receptor gamma (Homo sapiens, UniProt P37231); type: functional
T1 sequence (P37231 whole entry): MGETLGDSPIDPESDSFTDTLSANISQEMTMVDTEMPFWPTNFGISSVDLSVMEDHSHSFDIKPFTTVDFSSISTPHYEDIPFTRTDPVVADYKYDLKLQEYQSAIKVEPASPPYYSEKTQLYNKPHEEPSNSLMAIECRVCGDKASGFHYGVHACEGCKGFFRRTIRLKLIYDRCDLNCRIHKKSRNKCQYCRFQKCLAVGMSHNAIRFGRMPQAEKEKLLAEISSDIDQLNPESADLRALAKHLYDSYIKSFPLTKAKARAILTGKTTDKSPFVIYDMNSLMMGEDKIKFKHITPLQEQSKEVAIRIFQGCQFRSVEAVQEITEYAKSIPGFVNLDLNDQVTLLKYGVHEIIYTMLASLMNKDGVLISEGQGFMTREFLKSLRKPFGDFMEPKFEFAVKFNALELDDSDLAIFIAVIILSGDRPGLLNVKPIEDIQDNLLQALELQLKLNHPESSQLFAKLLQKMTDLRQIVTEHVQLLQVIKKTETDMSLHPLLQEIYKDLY

Histamine H1 receptor = Histamine H1 receptor (Homo sapiens, UniProt P35367)
Sequence of Histamine H1 receptor (P35367 whole entry): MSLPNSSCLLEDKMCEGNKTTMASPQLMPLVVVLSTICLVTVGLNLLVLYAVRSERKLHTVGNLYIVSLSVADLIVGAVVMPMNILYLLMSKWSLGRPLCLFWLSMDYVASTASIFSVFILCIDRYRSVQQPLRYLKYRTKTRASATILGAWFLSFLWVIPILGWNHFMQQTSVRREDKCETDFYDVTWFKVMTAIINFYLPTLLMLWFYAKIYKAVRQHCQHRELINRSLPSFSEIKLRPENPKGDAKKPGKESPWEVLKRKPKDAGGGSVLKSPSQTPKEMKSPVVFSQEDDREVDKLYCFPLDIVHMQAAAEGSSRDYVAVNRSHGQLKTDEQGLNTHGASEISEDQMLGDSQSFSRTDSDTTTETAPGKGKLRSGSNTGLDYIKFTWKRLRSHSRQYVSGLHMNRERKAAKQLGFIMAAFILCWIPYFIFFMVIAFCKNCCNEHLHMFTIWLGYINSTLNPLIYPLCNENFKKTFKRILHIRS

[3] = target: T2, Alpha-2B adrenergic receptor (Homo sapiens, UniProt P18089)
T2 sequence (P18089 whole entry): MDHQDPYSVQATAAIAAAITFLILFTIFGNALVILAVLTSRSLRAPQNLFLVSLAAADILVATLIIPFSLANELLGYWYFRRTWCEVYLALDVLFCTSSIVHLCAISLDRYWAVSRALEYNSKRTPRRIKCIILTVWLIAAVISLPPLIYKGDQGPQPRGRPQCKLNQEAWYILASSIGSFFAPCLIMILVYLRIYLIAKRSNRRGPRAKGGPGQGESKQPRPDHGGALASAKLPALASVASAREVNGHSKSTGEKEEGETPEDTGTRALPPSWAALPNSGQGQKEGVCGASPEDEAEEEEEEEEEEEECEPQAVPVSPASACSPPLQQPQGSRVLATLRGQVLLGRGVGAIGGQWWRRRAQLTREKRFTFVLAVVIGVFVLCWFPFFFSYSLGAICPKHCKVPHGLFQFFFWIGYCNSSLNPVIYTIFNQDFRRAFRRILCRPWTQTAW

[4] = target: T3, 5-hydroxytryptamine receptor 2C (Homo sapiens, UniProt P28335)
T3 sequence (P28335 whole entry): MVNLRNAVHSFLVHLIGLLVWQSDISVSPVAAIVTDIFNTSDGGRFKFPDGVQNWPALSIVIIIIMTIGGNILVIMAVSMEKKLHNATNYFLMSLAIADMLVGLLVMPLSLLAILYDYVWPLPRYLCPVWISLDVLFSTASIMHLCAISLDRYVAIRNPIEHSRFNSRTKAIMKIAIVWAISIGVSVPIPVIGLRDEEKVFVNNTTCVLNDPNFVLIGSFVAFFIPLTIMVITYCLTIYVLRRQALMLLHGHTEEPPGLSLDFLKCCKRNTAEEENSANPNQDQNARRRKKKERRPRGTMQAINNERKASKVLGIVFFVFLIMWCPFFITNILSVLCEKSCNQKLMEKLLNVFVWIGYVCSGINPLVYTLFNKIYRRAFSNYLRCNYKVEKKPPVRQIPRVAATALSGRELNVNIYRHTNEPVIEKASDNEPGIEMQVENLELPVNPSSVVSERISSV

[5] = target: T1, Peroxisome proliferator-activated receptor gamma; type: functional; remark: listed apart in the source
[6] = target: T4, Alpha-1A adrenergic receptor (Homo sapiens, UniProt P35348)
T4 sequence (P35348 whole entry): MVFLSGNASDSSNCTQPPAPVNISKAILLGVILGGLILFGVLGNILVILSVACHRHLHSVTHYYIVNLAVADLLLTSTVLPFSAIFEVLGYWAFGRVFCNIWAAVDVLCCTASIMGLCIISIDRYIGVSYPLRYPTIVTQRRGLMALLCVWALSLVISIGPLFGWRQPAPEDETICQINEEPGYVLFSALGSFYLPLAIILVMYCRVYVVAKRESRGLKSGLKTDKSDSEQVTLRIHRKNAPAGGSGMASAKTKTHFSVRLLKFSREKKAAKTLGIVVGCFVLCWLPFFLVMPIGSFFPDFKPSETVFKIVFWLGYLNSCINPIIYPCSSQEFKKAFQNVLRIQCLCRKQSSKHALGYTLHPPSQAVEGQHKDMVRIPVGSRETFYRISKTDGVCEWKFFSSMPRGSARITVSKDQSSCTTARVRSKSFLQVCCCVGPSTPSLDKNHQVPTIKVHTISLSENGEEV

[7] = target: Beta-3 adrenergic receptor (Homo sapiens, UniProt P13945)
Sequence of Beta-3 adrenergic receptor (P13945 whole entry): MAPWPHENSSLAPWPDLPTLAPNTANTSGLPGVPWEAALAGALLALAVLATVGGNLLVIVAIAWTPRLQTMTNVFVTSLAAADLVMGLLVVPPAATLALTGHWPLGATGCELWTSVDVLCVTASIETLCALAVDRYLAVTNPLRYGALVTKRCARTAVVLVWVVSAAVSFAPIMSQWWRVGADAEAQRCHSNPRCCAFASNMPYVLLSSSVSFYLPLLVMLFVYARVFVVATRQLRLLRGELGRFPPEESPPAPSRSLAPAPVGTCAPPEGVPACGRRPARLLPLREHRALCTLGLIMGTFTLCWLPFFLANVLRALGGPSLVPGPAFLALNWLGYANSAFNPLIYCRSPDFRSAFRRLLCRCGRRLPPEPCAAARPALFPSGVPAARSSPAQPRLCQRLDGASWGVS

[8] = target: T5, Corticotropin-releasing factor receptor 1 (Homo sapiens, UniProt P34998)
T5 sequence (P34998 whole entry): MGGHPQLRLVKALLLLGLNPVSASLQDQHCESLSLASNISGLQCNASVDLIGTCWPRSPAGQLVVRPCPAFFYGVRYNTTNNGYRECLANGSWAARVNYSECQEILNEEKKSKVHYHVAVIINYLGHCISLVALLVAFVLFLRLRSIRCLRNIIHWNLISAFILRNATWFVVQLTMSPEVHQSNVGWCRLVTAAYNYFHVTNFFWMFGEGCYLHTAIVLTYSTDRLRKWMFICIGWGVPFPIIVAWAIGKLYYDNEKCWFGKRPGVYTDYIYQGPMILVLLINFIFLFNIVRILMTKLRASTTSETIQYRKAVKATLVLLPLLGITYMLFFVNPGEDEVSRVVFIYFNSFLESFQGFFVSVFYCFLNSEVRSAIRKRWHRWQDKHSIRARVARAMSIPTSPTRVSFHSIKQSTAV

[9] = target: Gamma-aminobutyric acid receptor subunit alpha-1/alpha-2/beta-2/gamma-2 (Homo sapiens, UniProt P14867+P18507+P47869+P47870); type: protein-complex assay
Sequence of Gamma-aminobutyric acid receptor subunit alpha-1/alpha-2/beta-2/gamma-2 (P14867 whole entry): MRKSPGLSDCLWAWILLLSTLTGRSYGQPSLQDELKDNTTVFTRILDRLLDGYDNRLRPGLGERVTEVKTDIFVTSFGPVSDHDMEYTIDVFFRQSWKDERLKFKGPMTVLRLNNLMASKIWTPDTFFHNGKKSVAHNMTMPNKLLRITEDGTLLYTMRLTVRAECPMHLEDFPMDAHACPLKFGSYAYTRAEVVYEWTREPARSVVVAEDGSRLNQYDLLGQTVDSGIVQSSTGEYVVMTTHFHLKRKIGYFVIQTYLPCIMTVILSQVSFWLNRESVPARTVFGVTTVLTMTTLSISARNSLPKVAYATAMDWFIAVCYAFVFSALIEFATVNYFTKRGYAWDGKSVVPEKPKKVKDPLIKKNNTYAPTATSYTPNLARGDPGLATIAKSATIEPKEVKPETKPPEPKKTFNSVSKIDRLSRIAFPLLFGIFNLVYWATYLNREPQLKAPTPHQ
Sequence of Gamma-aminobutyric acid receptor subunit alpha-1/alpha-2/beta-2/gamma-2 (P47870 whole entry): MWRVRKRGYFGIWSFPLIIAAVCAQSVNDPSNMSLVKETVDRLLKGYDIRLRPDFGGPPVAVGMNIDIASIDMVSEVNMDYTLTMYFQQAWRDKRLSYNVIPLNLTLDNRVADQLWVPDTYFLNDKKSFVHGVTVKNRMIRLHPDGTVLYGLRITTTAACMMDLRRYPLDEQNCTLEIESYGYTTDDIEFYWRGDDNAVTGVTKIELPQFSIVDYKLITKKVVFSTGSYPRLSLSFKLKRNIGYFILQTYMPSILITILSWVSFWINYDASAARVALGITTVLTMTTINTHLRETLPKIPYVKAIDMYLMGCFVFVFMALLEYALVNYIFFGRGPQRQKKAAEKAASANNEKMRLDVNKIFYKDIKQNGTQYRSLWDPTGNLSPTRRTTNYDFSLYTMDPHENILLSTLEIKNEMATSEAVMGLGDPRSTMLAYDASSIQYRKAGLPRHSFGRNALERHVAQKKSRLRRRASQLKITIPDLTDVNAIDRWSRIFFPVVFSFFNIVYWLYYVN
Sequence of Gamma-aminobutyric acid receptor subunit alpha-1/alpha-2/beta-2/gamma-2 (P18507 whole entry): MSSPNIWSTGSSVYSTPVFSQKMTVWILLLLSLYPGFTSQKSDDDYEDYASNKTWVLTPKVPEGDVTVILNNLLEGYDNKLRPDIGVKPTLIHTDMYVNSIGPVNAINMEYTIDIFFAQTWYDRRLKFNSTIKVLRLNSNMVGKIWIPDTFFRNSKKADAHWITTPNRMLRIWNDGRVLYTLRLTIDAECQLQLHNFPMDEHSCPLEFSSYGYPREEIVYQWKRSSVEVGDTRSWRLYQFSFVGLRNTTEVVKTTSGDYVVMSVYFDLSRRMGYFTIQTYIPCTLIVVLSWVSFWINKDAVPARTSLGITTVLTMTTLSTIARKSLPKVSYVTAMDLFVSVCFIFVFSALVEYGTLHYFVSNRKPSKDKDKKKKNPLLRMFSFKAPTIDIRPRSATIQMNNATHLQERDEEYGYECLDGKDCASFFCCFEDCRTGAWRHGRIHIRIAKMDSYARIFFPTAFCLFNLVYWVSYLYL
Sequence of Gamma-aminobutyric acid receptor subunit alpha-1/alpha-2/beta-2/gamma-2 (P47869 whole entry): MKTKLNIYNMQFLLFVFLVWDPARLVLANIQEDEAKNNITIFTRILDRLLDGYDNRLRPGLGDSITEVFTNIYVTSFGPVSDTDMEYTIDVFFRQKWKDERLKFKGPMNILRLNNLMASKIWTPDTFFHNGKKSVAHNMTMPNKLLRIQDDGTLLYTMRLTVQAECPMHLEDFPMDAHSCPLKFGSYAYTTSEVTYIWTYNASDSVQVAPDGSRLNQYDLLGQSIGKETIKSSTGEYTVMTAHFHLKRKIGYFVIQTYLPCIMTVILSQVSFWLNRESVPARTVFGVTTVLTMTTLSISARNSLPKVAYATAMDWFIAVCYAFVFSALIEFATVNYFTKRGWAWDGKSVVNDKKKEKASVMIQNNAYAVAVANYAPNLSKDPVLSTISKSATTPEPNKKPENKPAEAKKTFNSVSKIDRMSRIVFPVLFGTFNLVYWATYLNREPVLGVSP
Further: assay procedure not described here.

Sequence of Mu-type opioid receptor (P35372 whole entry): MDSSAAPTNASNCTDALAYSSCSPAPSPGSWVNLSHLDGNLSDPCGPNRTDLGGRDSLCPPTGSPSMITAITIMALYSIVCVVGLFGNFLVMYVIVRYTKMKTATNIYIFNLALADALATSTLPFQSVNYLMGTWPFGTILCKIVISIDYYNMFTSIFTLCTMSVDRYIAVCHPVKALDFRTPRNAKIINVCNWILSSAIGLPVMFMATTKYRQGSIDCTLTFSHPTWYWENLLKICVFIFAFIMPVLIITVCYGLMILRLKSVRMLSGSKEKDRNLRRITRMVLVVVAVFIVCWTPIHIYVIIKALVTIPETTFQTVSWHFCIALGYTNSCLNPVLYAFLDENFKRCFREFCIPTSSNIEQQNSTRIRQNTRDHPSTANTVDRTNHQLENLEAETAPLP
Sequence of Muscarinic acetylcholine receptor M3 (P20309 whole entry): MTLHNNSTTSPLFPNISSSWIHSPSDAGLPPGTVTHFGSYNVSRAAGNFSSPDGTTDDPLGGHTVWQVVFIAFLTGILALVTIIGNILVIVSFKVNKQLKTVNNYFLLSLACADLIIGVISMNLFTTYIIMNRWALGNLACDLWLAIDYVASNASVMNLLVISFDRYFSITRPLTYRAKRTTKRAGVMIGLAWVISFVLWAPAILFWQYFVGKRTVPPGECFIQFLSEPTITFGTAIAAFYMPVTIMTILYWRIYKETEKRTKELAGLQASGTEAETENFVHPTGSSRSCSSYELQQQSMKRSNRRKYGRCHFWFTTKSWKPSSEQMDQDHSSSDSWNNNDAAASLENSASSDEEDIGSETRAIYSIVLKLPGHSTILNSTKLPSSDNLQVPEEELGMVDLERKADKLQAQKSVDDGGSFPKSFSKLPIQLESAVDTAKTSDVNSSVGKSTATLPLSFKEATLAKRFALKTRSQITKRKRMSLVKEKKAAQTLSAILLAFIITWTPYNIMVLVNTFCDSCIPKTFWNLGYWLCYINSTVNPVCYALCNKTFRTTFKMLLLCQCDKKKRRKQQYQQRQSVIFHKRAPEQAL

Row | SMILES | AC50 (Mu-type opioid receptor) [µM] | AC50 [1] [µM] | AC50 [2] [µM] | AC50 (Histamine H1 receptor) [µM] | AC50 [3] [µM] | AC50 [4] [µM] | AC50 [5] [µM] | AC50 [6] [µM] | AC50 [7] [µM] | AC50 [8] [µM] | AC50 [9] [µM]
1 | CC(C)c1nc(N(C)S(C)(=O)=O)nc(-c2ccc(F)cc2)c1/C=C/[C@@H](O)C[C@@H](O)CC(=O)O [ROSUVASTATIN] | > 30 | > 30 | > 30 | > 30 | > 30 | > 30 | > 30 | – | – | – | –
2 | CC(S)C(=O)NCC(=O)O (centres undefined) [TIOPRONIN] | – | > 30 | > 30 | > 30 | > 30 | > 30 | > 30 | – | – | – | –
3 | OC[C@H]1O[C@@](CO)(O[C@H]2O[C@H](CO)[C@@H](O)[C@H](O)[C@H]2O)[C@@H](O)[C@@H]1O [SUCROSE] | > 30 | > 30 | > 30 | > 30 | > 30 | > 30 | > 30 | – | – | – | –
4 | CO[C@H]1/C=C/O[C@@]2(C)Oc3c(C)c(O)c4c(O)c(c(/C=N/N5CCN(C)CC5)c(O)c4c3C2=O)NC(=O)/C(C)=C\C=C\[C@H](C)[C@H](O)[C@@H](C)[C@@H](O)[C@@H](C)[C@H](OC(C)=O)[C@@H]1C [RIFAMPIN] | > 30 | – | – | – | – | – | – | 2.33 | 32.6 | > 30 | –
5 | CC(C)Cc1ccc(C(C)C(=O)O)cc1 (centres undefined) [IBUPROFEN] | – | – | – | – | – | > 30 | – | > 10 | 7.12 | > 30 | > 30
6 | Cc1onc(-c2ccccc2)c1-c1ccc(S(N)(=O)=O)cc1 [VALDECOXIB] | – | – | > 30 | – | – | > 30 | > 30 | > 10 | > 30 | > 30 | > 30
7 | COc1ccccc1OCCNCC(O)COc1cccc2[nH]c3ccccc3c12 (centres undefined) [CARVEDILOL] | 5.2 | – | > 30 | – | – | 1.1 | 28 | 0.0194 | – | > 30 | –
8 | CN1C[C@H](C(=O)N[C@]2(C)O[C@@]3(O)[C@@H]4CCCN4C(=O)[C@H](Cc4ccccc4)N3C2=O)C=C2c3cccc4[nH]cc(c34)C[C@H]21 [ERGOTAMINE] | – | – | > 30 | – | – | 3.8 | > 30 | – | – | – | –
9 | C=CC[C@@H]1/C=C(\C)C[C@H](C)C[C@H](OC)[C@H]2O[C@@](O)(C(=O)C(=O)N3CCCC[C@H]3C(=O)O[C@H](/C(C)=C/[C@@H]3CC[C@@H](O)[C@H](OC)C3)[C@H](C)[C@@H](O)CC1=O)[C@H](C)C[C@@H]2OC [TACROLIMUS ANHYDROUS] | > 30 | – | > 30 | – | – | > 30 | > 30 | > 10 | 12.2 | > 30 | –
10 | C[C@H](CCC(=O)O)[C@H]1CC[C@H]2[C@@H]3[C@@H](O)C[C@@H]4C[C@H](O)CC[C@]4(C)[C@H]3CC[C@]12C [URSODIOL] | – | > 30 | > 30 | > 30 | > 30 | > 30 | > 30 | – | – | – | –
11 | N[C@@H](CC(=O)N1CCn2c(nnc2C(F)(F)F)C1)Cc1cc(F)c(F)cc1F [SITAGLIPTIN] | – | > 30 | > 30 | > 30 | > 30 | > 30 | > 30 | – | – | – | –
12 | CN(C)CCc1c[nH]c2ccc(Cn3cncn3)cc12 [RIZATRIPTAN] | > 30 | > 30 | – | 5.79 | > 30 | – | – | > 10 | > 30 | > 30 | –
13 | COc1cc2nccc(Oc3ccc(NC(=O)C4(C(=O)Nc5ccc(F)cc5)CC4)cc3)c2cc1OC [CABOZANTINIB] | – | > 30 | > 30 | > 30 | > 30 | > 30 | > 30 | – | – | – | > 30
14 | CCN1CCN(Cc2ccc(Nc3ncc(F)c(-c4cc(F)c5nc(C)n(C(C)C)c5c4)n3)nc2)CC1 [ABEMACICLIB] | – | > 30 | > 30 | 23 | > 30 | > 30 | > 30 | – | – | – | –
15 | COc1ccccc1Oc1c(NS(=O)(=O)c2ccc(C(C)(C)C)cc2)nc(-c2ncccn2)nc1OCCO [BOSENTAN] | – | > 30 | – | > 10 | > 10 | > 30 | – | > 10 | > 30 | > 30 | –
16 | C[C@@H](Oc1cc(-c2cnn(C3CCNCC3)c2)cnc1N)c1c(Cl)ccc(F)c1Cl [CRIZOTINIB] | – | > 30 | > 30 | > 30 | > 30 | > 30 | > 30 | – | 14.2 | > 30 | –
